Source: publication PMC9403976, “Elucidating the path to Plasmodium prolyl-tRNA synthetase inhibitors that overcome halofuginone resistance” (Nature Communications, 2022)
Several values for one entry are separate records, joined by “and”; a condition that tells them apart may be missing. Equal entries are not always repeated. Where two headings read alike, the source gives them in different places.

Experiments:
[1] = tested on: P. falciparum Dd2-2D4; assay: P. falciparum asexual blood stage (ABS) growth assay, SYBR Green, 72 h, wild-type parasites; type: cell-based, Plasmodium falciparum
[2] = target: T1, PfcProRS (Plasmodium falciparum, UniProt Q8I5R7); type: binding; conditions: for Normalized response, dose-response replicates (SI Fig 14): replicates 1-3
T1 construct: made in house; host or cells: E. coli SoluBL-21
T1 sequence (Q8I5R7 249-746): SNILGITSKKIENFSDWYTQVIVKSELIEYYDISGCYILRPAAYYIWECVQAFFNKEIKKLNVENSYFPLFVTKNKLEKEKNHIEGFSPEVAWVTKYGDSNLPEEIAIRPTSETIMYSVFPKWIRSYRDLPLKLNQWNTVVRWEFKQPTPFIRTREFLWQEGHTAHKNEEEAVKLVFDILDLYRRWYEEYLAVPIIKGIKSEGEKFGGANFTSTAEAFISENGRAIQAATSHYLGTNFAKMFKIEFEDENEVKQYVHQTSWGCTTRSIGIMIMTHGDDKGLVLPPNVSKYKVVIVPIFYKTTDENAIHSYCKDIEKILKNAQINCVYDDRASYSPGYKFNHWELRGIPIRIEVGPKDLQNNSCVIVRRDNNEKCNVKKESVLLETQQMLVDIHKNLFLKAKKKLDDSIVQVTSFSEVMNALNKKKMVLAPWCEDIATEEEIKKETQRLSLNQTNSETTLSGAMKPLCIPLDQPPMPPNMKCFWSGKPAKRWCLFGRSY

[3] = target: HsProRS (Homo sapiens, UniProt P07814); assay: TR-FRET ligand displacement assay with tracer MAT379 (CoraFluor-1-Halo and anti-His6 antibody formats); type: binding; set-up: made in house; host or cells: E. coli SoluBL-21
Sequence of HsProRS (P07814 996-1512): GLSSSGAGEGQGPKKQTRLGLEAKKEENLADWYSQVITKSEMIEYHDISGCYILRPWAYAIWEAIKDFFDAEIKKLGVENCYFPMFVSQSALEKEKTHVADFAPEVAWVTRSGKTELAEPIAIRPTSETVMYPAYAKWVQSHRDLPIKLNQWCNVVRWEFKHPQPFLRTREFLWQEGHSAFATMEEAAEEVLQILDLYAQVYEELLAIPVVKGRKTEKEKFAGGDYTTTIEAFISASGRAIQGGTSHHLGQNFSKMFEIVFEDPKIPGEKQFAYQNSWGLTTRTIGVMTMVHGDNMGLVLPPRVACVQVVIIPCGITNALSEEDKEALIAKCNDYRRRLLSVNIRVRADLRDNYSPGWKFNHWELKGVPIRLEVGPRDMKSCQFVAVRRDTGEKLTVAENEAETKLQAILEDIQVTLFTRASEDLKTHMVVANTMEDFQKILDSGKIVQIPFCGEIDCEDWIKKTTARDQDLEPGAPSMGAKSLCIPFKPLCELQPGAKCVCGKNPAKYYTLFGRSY

Compound	Normalized response, dose-response replicates (SI Fig 14) ([2]; Log[inhibitor] (M) -5.000)	Normalized response, dose-response replicates (SI Fig 14) ([2]; Log[inhibitor] (M) -5.301)	Normalized response, dose-response replicates (SI Fig 14) ([2]; Log[inhibitor] (M) -5.601)	Normalized response, dose-response replicates (SI Fig 14) ([2]; Log[inhibitor] (M) -5.904)	Normalized response, dose-response replicates (SI Fig 14) ([2]; Log[inhibitor] (M) -6.208)	Normalized response, dose-response replicates (SI Fig 14) ([2]; Log[inhibitor] (M) -6.509)	Normalized response, dose-response replicates (SI Fig 14) ([2]; Log[inhibitor] (M) -6.796)	Normalized response, dose-response replicates (SI Fig 14) ([2]; Log[inhibitor] (M) -7.108)	Normalized response, dose-response replicates (SI Fig 14) ([2]; Log[inhibitor] (M) -7.409)	Normalized response, dose-response replicates (SI Fig 14) ([2]; Log[inhibitor] (M) -7.710)	Normalized response, dose-response replicates (SI Fig 14) ([2]; Log[inhibitor] (M) -8.000)	Normalized response, dose-response replicates (SI Fig 14) ([2]; Log[inhibitor] (M) -8.301)	Normalized response, dose-response replicates (SI Fig 14) ([2]; Log[inhibitor] (M) -8.602)	Normalized response, dose-response replicates (SI Fig 14) ([2]; Log[inhibitor] (M) -9.000)	Normalized response, dose-response replicates (SI Fig 14) ([2]; Log[inhibitor] (M) -9.301)	further results
NCCCCCC(=O)NCC1CCN(C(=O)Nc2nccnc2C(=O)NC2Cc3ccccc3C2)CC1 [compound 44]	5.04E-02 and 6.61E-02 and 1.21E-01	2.04E-01 and 9.30E-02 and 7.91E-02	1.77E-01 and 2.33E-01 and 2.91E-01	3.70E-01 and 3.87E-01 and 3.95E-01	5.30E-01 and 6.18E-01 and 4.52E-01	5.98E-01 and 6.58E-01 and 5.97E-01	8.14E-01 and 8.03E-01 and 8.36E-01	7.21E-01 and 9.08E-01 and 7.69E-01	9.22E-01 and 9.63E-01 and 8.84E-01	9.26E-01 and 9.41E-01 and 9.94E-01	9.86E-01 and 9.96E-01 and 9.45E-01	1.01E+00 and 1.07E+00 and 1.09E+00	1.05E+00 and 9.10E-01 and 8.68E-01	8.54E-01 and 1.03E+00 and 1.01E+00	1.02E+00 and 8.64E-01 and 7.91E-01	% signal at 10 μM, wildtype (Dd2-2D4) ([1]; wildtype (Dd2-2D4), 10 μM): 51.4%; PfcProRS -- best Kd ([2]; SI Fig 16a, values on -log scale): 6.569; Kd ([3]; HsProRS (KD [nM]) mean, no added proline/ATP (-)): 1570 nM; Kd ([3]; HsProRS - best Kd, SI Fig 16a, values on -log scale): 330 nM
Nc1nccnc1C(=O)NC1Cc2ccccc2C1 [compound 45]	9.00E-01 and 8.01E-01 and 8.09E-01	8.40E-01 and 9.11E-01 and 9.42E-01	1.06E+00 and 1.02E+00 and 9.65E-01	1.09E+00 (2×) and 1.04E+00	9.29E-01 and 9.65E-01 and 9.12E-01	8.69E-01 and 9.97E-01 and 9.91E-01	1.07E+00 and 1.10E+00 and 9.29E-01	1.07E+00 and 1.01E+00 and 9.62E-01	8.73E-01 and 9.86E-01 and 1.07E+00	9.54E-01 and 1.09E+00 and 1.02E+00	9.85E-01 and 1.09E+00 and 1.00E+00	1.09E+00 and 9.49E-01 and 9.81E-01	1.13E+00 and 9.21E-01 and 9.56E-01	1.01E+00 and 9.94E-01 and 8.80E-01	9.92E-01 (2×) and 9.81E-01	EC50 ([1]; Plasmodium falciparum, DD2, SI Fig 16b, values on -log scale, read-out: ABS - Dd2-2D4 (converted)): 13.6 µM; IC50 [3]: > 10 µM; HsProRS % signal at 10 μM, + 100 μM proline ([3]; + 100 μM proline, 10 μM): 83.7%; HsProRS % signal at 10 μM ([3]; no added proline/ATP (-), 10 μM): 90.2%; IC50 ([3]; read-out: HsProRS IC50 + 100 μM proline, + 100 μM proline): > 10 µM
